Measured values published in patent US12295936B2, “Immunomodulating urea azalides” (Zoetis Services LLC, priority 2020, dated 2025).
Blank lines part the entries; values can stand above or below the compound they belong to.

Experiments:
[1] = test system: IL-1β; test: LPS-stimulated whole bovine blood assay, MSD cytokine detection; format: cell-based; details: overstimulation of IL-1β, LPS-stimulated bovine whole blood
[2] = test system: TNF-α; test: as above; format: cell-based; details: Bos taurus, LPS-stimulated bovine whole blood; read-out: TNF-α (IC50 μM)
[3] = test system: BRD pathogens, M. haemolytica and P. multocida; test: MIC screening panel of BRD pathogens (antibacterial / non-antibacterial); details: read-out: antibacterial / non-antibacterial (MIC for the BRD pathogens)
[4] = test system: IL-6; test: LPS-stimulated whole bovine blood assay, MSD cytokine detection; format: cell-based; details: Bos taurus, LPS-stimulated bovine whole blood; read-out: IL-6 (IC50 μM)
From the text: In order to correlate RNA sequencing data to cytokine changes the whole blood assay was utilized. […] The enhancement result represents an overall stimulation of cytokine levels due to cellular stress or potential toxicity with increasing concentrations of the compound, representing a typical bell shape response curve for immunomodulatory activity.

SMILES: CCCNC[C@]1(O)[C@H](C)O[C@@H](O[C@H]2[C@H](C)[C@@H](O[C@@H]3O[C@H](C)C[C@H](N(C)C(=O)Nc4cccc(Cl)c4)[C@H]3O)[C@](C)(O)C[C@@H](C)CN[C@H](C)[C@@H](O)[C@](C)(O)[C@@H](CC)OC(=O)[C@@H]2C)C[C@@]1(C)OC [Example H-88, 3-(3-chlorophenyl)-1-((2S,3R,4S,6R)-2-(((2R,3S,4R,5R,8R,10R,11R,12S,13S,14R)-2-ethyl-3,4,10-trihydroxy-13-(((2R,4R,5S,6S)-5-hydroxy-4-methoxy-4,6-dimethyl-5-((propylamino)methyl)tetrahydro-2H-pyran-2-yl)oxy)-3,5,8,10,12,14-hexamethyl-15-oxo-1-oxa-6-azacyclopentadecan-11-yl)oxy)-3-hydroxy-6-methyltetrahydro-2H-pyran-4-yl)-1-methylurea]
IL-1β OS of LPS [1]: 13 µM
IC50 [2]: 56 µM
MIC [3]: > 64 µg/mL
IC50 [4]: 92 µM

SMILES: CC[C@H]1OC(=O)[C@H](C)[C@@H](O[C@H]2C[C@@](C)(OC)[C@@H](O)[C@H](C)O2)[C@H](C)[C@@H](O[C@@H]2O[C@H](C)C[C@H](N(C)C(=O)Nc3ccc(C(F)(F)F)cc3)[C@H]2O)[C@](C)(O)C[C@@H](C)CN(C)[C@H](C)[C@@H](O)[C@]1(C)O [Example B-8, 1-((2S,3R,4S,6R)-2-(((2R,3S,4R,5R,8R,10R,11R,12S,13S,14R)-2-ethyl-3,4,10-trihydroxy-13-(((2R,4R,5S,6S)-5-hydroxy-4-methoxy-4,6-dimethyltetrahydro-2H-pyran-2-yl)oxy)-3,5,6,8,10,12,14-heptamethyl-15-oxo-1-oxa-6-azacyclopentadecan-11-yl)oxy)-3-hydroxy-6-methyltetrahydro-2H-pyran-4-yl)-1-methyl-3-(4-(trifluoromethyl)phenyl)urea]
IL-1β OS of LPS [1]: 6 µM
IC50 [2]: 2 µM
MIC [3]: > 64 µg/mL
IC50 [4]: 8 µM

SMILES: CCCNC[C@]1(O)[C@H](C)O[C@@H](O[C@H]2[C@H](C)[C@@H](O[C@@H]3O[C@H](C)C[C@H](N(C)C(=O)N(C)c4ccc(C(F)(F)F)cc4)[C@H]3O)[C@](C)(O)C[C@@H](C)CN(CCC)[C@H](C)[C@@H](O)[C@](C)(O)[C@@H](CC)OC(=O)[C@@H]2C)C[C@@]1(C)OC [Example H-103, 1-((2S,3R,4S,6R)-2-(((2R,3S,4R,5R,8R,10R,11R,12S,13S,14R)-2-ethyl-3,4,10-trihydroxy-13-(((2R,4R,5S,6S)-5-hydroxy-4-methoxy-4,6-dimethyl-5-((propylamino)methyl)tetrahydro-2H-pyran-2-yl)oxy)-3,5,8,10,12,14-hexamethyl-15-oxo-6-propyl-1-oxa-6-azacyclopentadecan-11-yl)oxy)-3-hydroxy-6-methyltetrahydro-2H-pyran-4-yl)-1,3-dimethyl-3-(4-(trifluoromethyl)phenyl)urea]
IL-1β OS of LPS [1]: 3 µM
IC50 [2]: 5 µM
MIC [3]: > 64 µg/mL
IC50 [4]: 4 µM

SMILES: CCCNC[C@]1(O)[C@H](C)O[C@@H](O[C@H]2[C@H](C)[C@@H](O[C@@H]3O[C@H](C)C[C@H](N(Cc4nccs4)C(=O)N(C)c4ccccc4)[C@H]3O)[C@](C)(O)C[C@@H](C)CN[C@H](C)[C@@H](O)[C@](C)(O)[C@@H](CC)OC(=O)[C@@H]2C)C[C@@]1(C)OC [Example H-64, 1-((2S,3R,4S,6R)-2-(((2R,3S,4R,5R,8R,10R,11R,12S,13S,14R)-2-ethyl-3,4,10-trihydroxy-13-(((2R,4R,5S,6S)-5-hydroxy-4-methoxy-4,6-dimethyl-5-((propylamino)methyl)tetrahydro-2H-pyran-2-yl)oxy)-3,5,8,10,12,14-hexamethyl-15-oxo-1-oxa-6-azacyclopentadecan-11-yl)oxy)-3-hydroxy-6-methyltetrahydro-2H-pyran-4-yl)-3-methyl-3-phenyl-1-(thiazol-2-ylmethyl)urea]
IL-1β OS of LPS [1]: 16 µM
IC50 [2]: 28 µM
MIC [3]: > 64 µg/mL
IC50 [4]: 28 µM

SMILES: CC[C@H]1OC(=O)[C@H](C)[C@@H](O[C@H]2C[C@@](C)(OC)[C@](O)(CN3CCC(S(C)(=O)=O)CC3)[C@H](C)O2)[C@H](C)[C@@H](O[C@@H]2O[C@H](C)C[C@H](N(C)C(=O)N(C)c3ccccc3)[C@H]2O)[C@](C)(O)C[C@@H](C)CN[C@H](C)[C@@H](O)[C@]1(C)O [Example J-21, 1-((2S,3R,4S,6R)-2-(((2R,3S,4R,5R,8R,10R,11R,12S,13S,14R)-2-ethyl-3,4,10-trihydroxy-13-(((2R,4R,5S,6S)-5-hydroxy-4-methoxy-4,6-dimethyl-5-((4-(methylsulfonyl)piperidin-1-yl)methyl)tetrahydro-2H-pyran-2-yl)oxy)-3,5,8,10,12,14-hexamethyl-15-oxo-1-oxa-6-azacyclopentadecan-11-yl)oxy)-3-hydroxy-6-methyltetrahydro-2H-pyran-4-yl)-1,3-dimethyl-3-phenylurea]
IL-1β OS of LPS [1]: 20 µM
IC50 [2]: 65 µM
MIC [3]: > 64 µg/mL
IC50 [4]: 75 µM

SMILES: CCCCNC[C@]1(O)[C@H](C)O[C@@H](O[C@H]2[C@H](C)[C@@H](O[C@@H]3O[C@H](C)C[C@H](N(C)C(=O)N(C)c4ccccc4)[C@H]3O)[C@](C)(O)C[C@@H](C)CN[C@H](C)[C@@H](O)[C@](C)(O)[C@@H](CC)OC(=O)[C@@H]2C)C[C@@]1(C)OC [Example H-28, 1-((2S,3R,4S,6R)-2-(((2R,3S,4R,5R,8R,10R,11R,12S,13S,14R)-13-(((2R,4R,5S,6S)-5-((butylamino)methyl)-5-hydroxy-4-methoxy-4,6-dimethyltetrahydro-2H-pyran-2-yl)oxy)-2-ethyl-3,4,10-trihydroxy-3,5,8,10,12,14-hexamethyl-15-oxo-1-oxa-6-azacyclopentadecan-11-yl)oxy)-3-hydroxy-6-methyltetrahydro-2H-pyran-4-yl)-1,3-dimethyl-3-phenylurea]
IL-1β OS of LPS [1]: 17 µM
IC50 [2]: 13 µM
MIC [3]: > 64 µg/mL
IC50 [4]: 8 µM

Continued, in another order:

IC50 [2]: > 250 µM
IC50 [4]: 246 µM
SMILES: CC[C@H]1OC(=O)[C@H](C)[C@@H](O)[C@H](C)[C@@H](O[C@@H]2O[C@H](C)C[C@H](N(C)C(=O)Nc3ccc(OC)cc3)[C@H]2O)[C@](C)(O)C[C@@H](C)CN[C@H](C)[C@@H](O)[C@]1(C)O [Example A-22, 1-((2S,3R,4S,6R)-2-(((2R,3S,4R,5R,8R,10R,11R,12S,13S,14R)-2-ethyl-3,4,10,13-tetrahydroxy-3,5,8,10,12,14-hexamethyl-15-oxo-1-oxa-6-azacyclopentadecan-11-yl)oxy)-3-hydroxy-6-methyltetrahydro-2H-pyran-4-yl)-3-(4-methoxyphenyl)-1-methylurea]
IL-1β OS of LPS [1]: 100 µM
MIC [3]: > 64 µg/mL

IC50 [2]: 37 µM
IC50 [4]: 57 µM
SMILES: CC[C@H]1OC(=O)[C@H](C)[C@@H](O[C@H]2C[C@@](C)(OC)[C@](O)(CNCCC3CCOCC3)[C@H](C)O2)[C@H](C)[C@@H](O[C@@H]2O[C@H](C)C[C@H](N(C)C(=O)N(C)c3ccccc3)[C@H]2O)[C@](C)(O)C[C@@H](C)CN[C@H](C)[C@@H](O)[C@]1(C)O [Example H-33, 1-((2S,3R,4S,6R)-2-(((2R,3S,4R,5R,8R,10R,11R,12S,13S,14R)-2-ethyl-3,4,10-trihydroxy-13-(((2R,4R,5S,6S)-5-hydroxy-4-methoxy-4,6-dimethyl-5-(((2-(tetrahydro-2H-pyran-4-yl)ethyl)amino)methyl)tetrahydro-2H-pyran-2-yl)oxy)-3,5,8,10,12,14-hexamethyl-15-oxo-1-oxa-6-azacyclopentadecan-11-yl)oxy)-3-hydroxy-6-methyltetrahydro-2H-pyran-4-yl)-1,3-dimethyl-3-phenylurea]
IL-1β OS of LPS [1]: 6 µM
MIC [3]: > 64 µg/mL

IC50 [2]: 6 µM
IC50 [4]: 5 µM
SMILES: CCCNC[C@]1(O)[C@H](C)O[C@@H](O[C@H]2[C@H](C)[C@@H](O[C@@H]3O[C@H](C)C[C@H](N(CCC)C(=O)N(C)c4ccc(C(F)(F)F)cc4)[C@H]3O)[C@](C)(O)C[C@@H](C)CN[C@H](C)[C@@H](O)[C@](C)(O)[C@@H](CC)OC(=O)[C@@H]2C)C[C@@]1(C)OC [Example H-8, 1-((2S,3R,4S,6R)-2-(((2R,3S,4R,5R,8R,10R,11R,12S,13S,14R)-2-ethyl-3,4,10-trihydroxy-13-(((2R,4R,5S,6S)-5-hydroxy-4-methoxy-4,6-dimethyl-5-((propylamino)methyl)tetrahydro-2H-pyran-2-yl)oxy)-3,5,8,10,12,14-hexamethyl-15-oxo-1-oxa-6-azacyclopentadecan-11-yl)oxy)-3-hydroxy-6-methyltetrahydro-2H-pyran-4-yl)-3-methyl-1-propyl-3-(4-(trifluoromethyl)phenyl)urea]
IL-1β OS of LPS [1]: 1 µM
MIC [3]: > 64 µg/mL

IC50 [2]: 8 µM
IC50 [4]: 17 µM
SMILES: CC[C@H]1OC(=O)[C@H](C)[C@@H](O[C@H]2C[C@@](C)(OC)[C@](O)(CNC3CC3)[C@H](C)O2)[C@H](C)[C@@H](O[C@@H]2O[C@H](C)C[C@H](N(C)C(=O)N(C)c3ccccc3)[C@H]2O)[C@](C)(O)C[C@@H](C)CN[C@H](C)[C@@H](O)[C@]1(C)O [Example H-27, 1-((2S,3R,4S,6R)-2-(((2R,3S,4R,5R,8R,10R,11R,12S,13S,14R)-13-(((2R,4R,5S,6S)-5-((cyclopropylamino)methyl)-5-hydroxy-4-methoxy-4,6-dimethyltetrahydro-2H-pyran-2-yl)oxy)-2-ethyl-3,4,10-trihydroxy-3,5,8,10,12,14-hexamethyl-15-oxo-1-oxa-6-azacyclopentadecan-11-yl)oxy)-3-hydroxy-6-methyltetrahydro-2H-pyran-4-yl)-1,3-dimethyl-3-phenylurea]
IL-1β OS of LPS [1]: 16 µM
MIC [3]: > 64 µg/mL
